Values quoted from earlier work in US20050065175A1 (Xanodyne Pharmacal, Inc., priority 2003, published 2005).
Where a name gives a salt, the structure may show the parent alone.

Experiments:
[1] = water and ethanol
[2] = orally administered tablets, absorption through GI tract

| SMILES | solubility [1] | time until methadone can be detected in blood plasma after ingestion [2] | bioavailability of oral transmucosal methadone (oral cavity fluid pH between about 7 and about 10) | oral bioavailability of methadone (oral cavity pH about 8 to about 9) | bioavailability via the oral transmucosal route (pH about 6.5 to about 6.9 (normal saliva)) | bioavailability via the oral mucosa (pH of about 8.5) | portion of the orally bioavailable methadone in the bloodstream (within the first 2.5 minutes of delivery to the mucosal tissue) |
| --- | --- | --- | --- | --- | --- | --- | --- |
| CCC(=O)C(CC(C)N(C)C)(c1ccccc1)c1ccccc1 (stereo not shown) [Methadone hydrochloride] | soluble in water and ethanol | – | – | – | – | – | – |
| CCC(=O)C(CC(C)N(C)C)(c1ccccc1)c1ccccc1 (stereo not shown) [methadone] | – | ≤ 30 min | 50-75% | ≤ 75% | about 34% | about 75% | 50-70% |
